Where “and” joins values, the source holds several entries; their conditions need not be identical. Identical values can stand only once. Numbers after ± are expanded uncertainties.
What was measured:
[1] = specific heat capacity at constant pressure; xn = mol fraction of the nth substance listed; details: 100 kPa, Crystal of intercomponent compound 1, x2 = 0.486
[2] = xn = mol fraction of the nth substance listed; details: 298 K; 100 kPa; Crystal of intercomponent compound 1; X-ray diffraction; x2 = 0.486

[Te] [tellurium] + [Ga]
[1]
Details | specific heat capacity
241.78 K, relaxation calorimetry | 242.8 ± 9.9 J/K/kg
241.86 K, relaxation calorimetry | 243.61 ± 9.9 J/K/kg
241.89 K, relaxation calorimetry | 243.51 ± 9.9 J/K/kg
245.93 K, relaxation calorimetry | 243.46 ± 9.9 J/K/kg
245.97 K, relaxation calorimetry | 243.31 ± 9.9 J/K/kg
246.62 K, relaxation calorimetry | 244.93 ± 9.9 J/K/kg
246.79 K, relaxation calorimetry | 243.87 ± 9.9 J/K/kg
248.47 K, relaxation calorimetry | 241.79 ± 9.8 J/K/kg
248.52 K, relaxation calorimetry | 242.09 ± 9.8 J/K/kg
248.53 K, relaxation calorimetry | 241.99 ± 9.8 J/K/kg
249.9 K, relaxation calorimetry | 242.85 ± 9.9 J/K/kg
249.93 K, relaxation calorimetry | 242.9 ± 9.9 J/K/kg
251.64 K, relaxation calorimetry | 245.64 ± 10 J/K/kg
251.81 K, relaxation calorimetry | 244.63 ± 9.9 J/K/kg
253.96 K, relaxation calorimetry | 242.96 ± 9.9 J/K/kg
254 K, relaxation calorimetry | 243.06 ± 9.9 J/K/kg
256.38 K, relaxation calorimetry | 242.14 ± 9.8 J/K/kg
256.44 K, relaxation calorimetry | 242.35 ± 9.8 J/K/kg and 242.65 ± 9.8 J/K/kg
256.66 K, relaxation calorimetry | 246.25 ± 10 J/K/kg
256.83 K, relaxation calorimetry | 245.08 ± 10 J/K/kg
258.12 K, relaxation calorimetry | 244.12 ± 9.9 J/K/kg
258.16 K, relaxation calorimetry | 244.02 ± 9.9 J/K/kg
260.51 K, Extra sensitive DSC | 245.54 ± 9.5 J/K/kg
261.66 K, relaxation calorimetry | 248.07 ± 10 J/K/kg
261.82 K, relaxation calorimetry | 246.86 ± 10 J/K/kg
262.18 K, relaxation calorimetry | 245.13 ± 10 J/K/kg
262.22 K, relaxation calorimetry | 244.93 ± 10 J/K/kg
263.12 K, Extra sensitive DSC | 246.4 ± 9.5 J/K/kg
264.28 K, relaxation calorimetry | 243.97 ± 9.9 J/K/kg
264.35 K, relaxation calorimetry | 244.43 ± 9.9 J/K/kg and 244.17 ± 9.9 J/K/kg
265.73 K, Extra sensitive DSC | 246.3 ± 9.5 J/K/kg
266.13 K, relaxation calorimetry | 246.15 ± 10 J/K/kg
266.19 K, relaxation calorimetry | 245.59 ± 10 J/K/kg
266.68 K, relaxation calorimetry | 246.55 ± 10 J/K/kg
266.71 K, relaxation calorimetry | 246.55 ± 10 J/K/kg
266.72 K, relaxation calorimetry | 246.4 ± 10 J/K/kg
268.33 K, Extra sensitive DSC | 246.81 ± 9.6 J/K/kg
270.07 K, Extra sensitive DSC | 246.96 ± 9.6 J/K/kg
270.3 K, relaxation calorimetry | 248.78 ± 10 J/K/kg
270.35 K, relaxation calorimetry | 247.67 ± 10 J/K/kg
270.64 K, relaxation calorimetry | 247.06 ± 10 J/K/kg
270.65 K, relaxation calorimetry | 246.66 ± 10 J/K/kg
271.54 K, relaxation calorimetry | 248.83 ± 10 J/K/kg
271.73 K, relaxation calorimetry | 246.76 ± 10 J/K/kg
271.83 K, relaxation calorimetry | 246.35 ± 10 J/K/kg
272.68 K, Extra sensitive DSC | 247.06 ± 9.6 J/K/kg
272.79 K, relaxation calorimetry | 247.62 ± 10 J/K/kg
272.8 K, relaxation calorimetry | 247.31 ± 10 J/K/kg
273.54 K, relaxation calorimetry | 249.19 ± 10 J/K/kg
273.74 K, relaxation calorimetry | 246.71 ± 10 J/K/kg
273.84 K, relaxation calorimetry | 246.55 ± 10 J/K/kg
275.28 K, Extra sensitive DSC | 247.26 ± 9.6 J/K/kg
275.55 K, relaxation calorimetry | 249.14 ± 10 J/K/kg
275.75 K, relaxation calorimetry | 246.76 ± 10 J/K/kg
275.85 K, relaxation calorimetry | 246.5 ± 10 J/K/kg
277.54 K, relaxation calorimetry | 249.29 ± 10 J/K/kg
277.75 K, relaxation calorimetry | 246.76 ± 10 J/K/kg
277.85 K, relaxation calorimetry | 246.55 ± 10 J/K/kg
277.88 K, Extra sensitive DSC | 247.72 ± 9.6 J/K/kg
279.54 K, relaxation calorimetry | 249.09 ± 10 J/K/kg
279.76 K, relaxation calorimetry | 246.5 ± 10 J/K/kg
279.87 K, relaxation calorimetry | 246.45 ± 10 J/K/kg
280.49 K, Extra sensitive DSC | 247.87 ± 9.6 J/K/kg
281.52 K, relaxation calorimetry | 249.09 ± 10 J/K/kg
281.76 K, relaxation calorimetry | 246.25 ± 10 J/K/kg
281.87 K, relaxation calorimetry | 246.1 ± 10 J/K/kg
283.09 K, Extra sensitive DSC | 248.33 ± 9.6 J/K/kg
283.53 K, relaxation calorimetry | 248.99 ± 10 J/K/kg
283.78 K, relaxation calorimetry | 246.15 ± 10 J/K/kg
283.87 K, relaxation calorimetry | 246.66 ± 10 J/K/kg
285.53 K, relaxation calorimetry | 249.44 ± 10 J/K/kg
285.7 K, Extra sensitive DSC | 248.58 ± 9.6 J/K/kg
285.78 K, relaxation calorimetry | 246.4 ± 10 J/K/kg
285.88 K, relaxation calorimetry | 246.6 ± 10 J/K/kg
287.54 K, relaxation calorimetry | 249.54 ± 10 J/K/kg
287.78 K, relaxation calorimetry | 246.35 ± 10 J/K/kg
287.89 K, relaxation calorimetry | 246.66 ± 10 J/K/kg
288.3 K, Extra sensitive DSC | 248.89 ± 9.6 J/K/kg
289.53 K, relaxation calorimetry | 249.65 ± 10 J/K/kg
289.79 K, relaxation calorimetry | 246.55 ± 10 J/K/kg
289.89 K, relaxation calorimetry | 246.86 ± 10 J/K/kg
290.04 K, Extra sensitive DSC | 248.94 ± 9.6 J/K/kg
291.53 K, relaxation calorimetry | 250.41 ± 10 J/K/kg
291.8 K, relaxation calorimetry | 247.16 ± 10 J/K/kg
291.9 K, relaxation calorimetry | 247.52 ± 10 J/K/kg
292.64 K, Extra sensitive DSC | 249.09 ± 9.6 J/K/kg
293.52 K, relaxation calorimetry | 251.32 ± 10 J/K/kg
293.81 K, relaxation calorimetry | 248.68 ± 10 J/K/kg
293.9 K, relaxation calorimetry | 248.89 ± 10 J/K/kg
295.25 K, Extra sensitive DSC | 249.29 ± 9.7 J/K/kg
295.51 K, relaxation calorimetry | 251.37 ± 10 J/K/kg
295.84 K, relaxation calorimetry | 249.34 ± 10 J/K/kg
295.91 K, relaxation calorimetry | 249.34 ± 10 J/K/kg
297.52 K, relaxation calorimetry | 250.81 ± 10 J/K/kg
297.83 K, relaxation calorimetry | 250.71 ± 10 J/K/kg
297.85 K, Extra sensitive DSC | 249.75 ± 9.7 J/K/kg
297.93 K, relaxation calorimetry | 248.68 ± 10 J/K/kg
299.53 K, relaxation calorimetry | 250.25 ± 10 J/K/kg
299.85 K, relaxation calorimetry | 250.15 ± 10 J/K/kg
299.94 K, relaxation calorimetry | 248.63 ± 10 J/K/kg
300.45 K, Extra sensitive DSC | 249.9 ± 9.7 J/K/kg
301.54 K, relaxation calorimetry | 251.06 ± 10 J/K/kg
301.87 K, relaxation calorimetry | 250.86 ± 10 J/K/kg
301.95 K, relaxation calorimetry | 249.39 ± 10 J/K/kg
303.06 K, Extra sensitive DSC | 250.51 ± 9.7 J/K/kg
303.81 K, relaxation calorimetry | 250.56 ± 10 J/K/kg
303.84 K, relaxation calorimetry | 252.33 ± 10 J/K/kg
303.87 K, relaxation calorimetry | 250.51 ± 10 J/K/kg
305.66 K, Extra sensitive DSC | 250.76 ± 9.7 J/K/kg
307.4 K, Extra sensitive DSC | 250.81 ± 9.7 J/K/kg
310 K, Extra sensitive DSC | 251.22 ± 9.7 J/K/kg
312.6 K, Extra sensitive DSC | 251.42 ± 9.7 J/K/kg
315.21 K, Extra sensitive DSC | 251.88 ± 9.7 J/K/kg
317.81 K, Extra sensitive DSC | 251.93 ± 9.8 J/K/kg
320.41 K, Extra sensitive DSC | 252.23 ± 9.8 J/K/kg
323.02 K, Extra sensitive DSC | 252.48 ± 9.8 J/K/kg
325.62 K, Extra sensitive DSC | 252.53 ± 9.8 J/K/kg
327.36 K, Extra sensitive DSC | 252.74 ± 9.8 J/K/kg
329.96 K, Extra sensitive DSC | 253.04 ± 9.8 J/K/kg
332.56 K, Extra sensitive DSC | 253.19 ± 9.8 J/K/kg
335.17 K, Extra sensitive DSC | 253.5 ± 9.8 J/K/kg
337.77 K, Extra sensitive DSC | 253.7 ± 9.8 J/K/kg
340.38 K, Extra sensitive DSC | 254 ± 9.8 J/K/kg
342.98 K, Extra sensitive DSC | 254.41 ± 9.8 J/K/kg
345.58 K, Extra sensitive DSC | 254.41 ± 9.8 J/K/kg
348.19 K, Extra sensitive DSC | 254.76 ± 9.9 J/K/kg
349.92 K, Extra sensitive DSC | 254.76 ± 9.9 J/K/kg
352.53 K, Extra sensitive DSC | 254.66 ± 9.9 J/K/kg
355.13 K, Extra sensitive DSC | 255.32 ± 9.9 J/K/kg
356.87 K, Extra sensitive DSC | 255.07 ± 9.9 J/K/kg
358.6 K, Extra sensitive DSC | 254.97 ± 9.9 J/K/kg

Details | mass density [kg/m3]
[2] | 5448 ± 53

— the NIST ThermoML archive (doi:10.1016/j.jct.2018.08.013)
